From patent US20160058829A1, “ANTI-FIBROTIC PEPTIDES AND THEIR USE IN METHODS FOR TREATING DISEASES AND DISORDERS CHARACTERIZED BY FIBROSIS” (Thrasos Innovation, Inc., priority 2011, published 2016)
Positions of bridges follow the written chain, without caps; N, C: chain ends. Non-standard residues stand in square brackets, D forms with d. *: point of attachment. Dap = NC[C@H](N)C(=O)O; For = O=C*

System: human proximal tubule epithelial cells (HK2)
Experiment: D-glucose-induced EMT assay, E-cadherin immunofluorescence with colorimetric image analysis
Type: cell-based
Details: for Percent inhibition of D-glucose-induced EMT: 0% = D-glucose untreated, 100% = media without D-glucose
Method: Chronic hyperglycemia is a known cause of renal fibrosis in type 2 diabetes. The assay in this example induces the transdifferentiation from the epithelial to the mesenchymal phenotype (EMT) in human proximal tubule epithelial cells (HK2) by exposing them to high levels of D-glucose (100 mM and 200 mM). […] Exposure to 100 mM D-glucose results in the loss of E-cadherine expression as evidenced by the loss of the fluorescene signal. Using this assay test compounds are evaluated based on their ability to inhibit the EMT processes in the presence of high levels of D-glucose. FIGS. 4-16 are fluorescence micrographs of HK2 cells exposed to 100 mM D-glucose and 100 uM of SEQ IS NOs 1 through 11, respectively. Note that all but SEQ ID NOs 10 and 11 were able to preserve the epithelial phenotype (i.e., inhibit the EMT).
Results are provided in the context of FIG. 1 and Table 3, below. In Table 3 below, compound response is scored using image analysis as described herein in the method of Methods and Materials, part C. A 0% response corresponds to the signal for 100 mM (or 200 mM) D-glucose (untreated) while the 100% response corresponds to the signal for media in the absence of D-glucose.
It has been shown that transdifferentiation of proximal tubular epithelial cells is a critical step in the development of renal fibrosis, and that this is associated with a loss of the epithelial phenotypic marker, E-cadherin expression. This provides the basis for the development of a cell-based screening assay in which high concentrations of D-Glucose (50-100 mM) are used to induce a loss of E-cadherin expression in human renal proximal tubular epithelial (HK-2) cells, and compounds are tested for their ability to reverse the loss E-cadherin expression.
Materials: • Human proximal tubular epithelial cells, HK-2 (ATCC #CRL-2190) • Serum-free keratinocyte medium (GIBCO #17005-042, K-SFM) • Epidermal growth factor (EGF: 5 ng/mL) • Bovine pituitary extract (BPE: 40 ug/mL) • Primary antibody, Mouse IgG anti-E-cadherin (R&D Systems # MAB1838) • BSA [Sigma #A7030] • secondary antibody, FITC-conjugated Goat anti-mouse IgG (Fab2) fragment (Sigma-Aldrich # F-2653) • Paraformaldehyde (10%)) • Triton X-100 (Sigma # T-9284) • PBS (Fisher Scientific #BP399-1) • D-PBS (Invitrogen #14190-144) • Polypropylene tips (Axygen, Inc. 0.5-10 uL, cat # T-300-L-R; 1-200 uL, Cat # T-200-L-R; 1-1000 uL, Cat # T-1000-C-L-R) • 50 mL polypropylene culture tubes (Fisher Scientific, cat #06-443-18) • 24-well Coster cell culture plates (Fisher Scientific #07-200-84)
Reagents & Test Samples: • Positive control: BMP-7, assayed at concentrations 0.1 and 1 ug/mL • Test compounds (peptides): each tested at final concentrations 100 uM and 200 uM.
Assay Procedure for Cell Culture Assay: • Run assay in 24-well culture plates. • Seed HK-2 cells at a density between 25,000 and 30,000 cells per well in lmL K-SFM medium with supplements added (growth medium) • Incubate HK-2 cells for 24 hours at 37° C., and let cells attach the plate • Next Day afternoon, change the medium with K-SFM medium with no added supplements (serum free medium) in all wells except the first two control wells. • Continue incubating HK-2 cells overnight at 37° C. • Next Day, aspirate the medium from all wells. Incubate the cells in growth medium (first two control wells) or expose them to test compounds for 2 hours at 37° C. Final concentrations of each Test compound are 100 and 200 uM. BMP-7 serves as a positive control in the assay. • After incubation, add D-glucose to all wells except first two control wells. Final concentrations of D-Glucose are 50 and 100 mM. • Incubate HK-2 cells for 60 hours at 37° C. • Aspirate the medium from all wells. To the wells, add pre-warmed growth medium or serum free medium containing D-glucose alone or D-glucose and test compound or D-glucose and BMP-7. Final concentrations of D-Glucose and Test compound are the same as above. • Continue incubating HK-2 cells for 24 hours at 37° C. […]

Substance | Percent inhibition of D-glucose-induced EMT (100 uM peptide) [%] | Percent inhibition of D-glucose-induced EMT (200 uM peptide) [%] | preservation of the epithelial phenotype (inhibition of EMT), anti-fibrotic effect (HK2 cells, high D-glucose)
9 (H-[Dap]YYDNSSSVLDKRYRS-OH; SMILES CC(C)C[C@H](NC(=O)[C@@H](NC(=O)[C@H](CO)NC(=O)[C@H](CO)NC(=O)[C@H](CO)NC(=O)[C@H](CC(N)=O)NC(=O)[C@H](CC(=O)O)NC(=O)[C@H](Cc1ccc(O)cc1)NC(=O)[C@H](Cc1ccc(O)cc1)NC(=O)[C@@H](N)CN)C(C)C)C(=O)N[C@@H](CC(=O)O)C(=O)N[C@@H](CCCCN)C(=O)N[C@@H](CCCNC(=N)N)C(=O)N[C@@H](Cc1ccc(O)cc1)C(=O)N[C@@H](CCCNC(=N)N)C(=O)N[C@@H](CO)C(=O)O) [compound 9] | 83 | 125 | 
11 (H-CYYDDSSSVLCKKYRS-OH; disulfide 1-11; SMILES CC(C)C[C@@H]1NC(=O)[C@H](C(C)C)NC(=O)[C@H](CO)NC(=O)[C@H](CO)NC(=O)[C@H](CO)NC(=O)[C@H](CC(=O)O)NC(=O)[C@H](CC(=O)O)NC(=O)[C@H](Cc2ccc(O)cc2)NC(=O)[C@H](Cc2ccc(O)cc2)NC(=O)[C@@H](N)CSSC[C@@H](C(=O)N[C@@H](CCCCN)C(=O)N[C@@H](CCCCN)C(=O)N[C@@H](Cc2ccc(O)cc2)C(=O)N[C@@H](CCCNC(=N)N)C(=O)N[C@@H](CO)C(=O)O)NC1=O) [compound 11] |  | −13 | 
8 (H-CYYDNSSSVLCKKYRS-OH; disulfide 1-11; SMILES CC(C)C[C@@H]1NC(=O)[C@H](C(C)C)NC(=O)[C@H](CO)NC(=O)[C@H](CO)NC(=O)[C@H](CO)NC(=O)[C@H](CC(N)=O)NC(=O)[C@H](CC(=O)O)NC(=O)[C@H](Cc2ccc(O)cc2)NC(=O)[C@H](Cc2ccc(O)cc2)NC(=O)[C@@H](N)CSSC[C@@H](C(=O)N[C@@H](CCCCN)C(=O)N[C@@H](CCCCN)C(=O)N[C@@H](Cc2ccc(O)cc2)C(=O)N[C@@H](CCCNC(=N)N)C(=O)N[C@@H](CO)C(=O)O)NC1=O) [compound 8] | 155 | 104 | 
5 (H-CYYDNSSSVLCKRYRS-OH; disulfide 1-11; SMILES CC(C)C[C@@H]1NC(=O)[C@H](C(C)C)NC(=O)[C@H](CO)NC(=O)[C@H](CO)NC(=O)[C@H](CO)NC(=O)[C@H](CC(N)=O)NC(=O)[C@H](CC(=O)O)NC(=O)[C@H](Cc2ccc(O)cc2)NC(=O)[C@H](Cc2ccc(O)cc2)NC(=O)[C@@H](N)CSSC[C@@H](C(=O)N[C@@H](CCCCN)C(=O)N[C@@H](CCCNC(=N)N)C(=O)N[C@@H](Cc2ccc(O)cc2)C(=O)N[C@@H](CCCNC(=N)N)C(=O)N[C@@H](CO)C(=O)O)NC1=O) [compound 5] | 33 | 84 | 
3 (H-[Dap]YFDDSSNVLDKKYRS-OH; SMILES CC(C)C[C@H](NC(=O)[C@@H](NC(=O)[C@H](CC(N)=O)NC(=O)[C@H](CO)NC(=O)[C@H](CO)NC(=O)[C@H](CC(=O)O)NC(=O)[C@H](CC(=O)O)NC(=O)[C@H](Cc1ccccc1)NC(=O)[C@H](Cc1ccc(O)cc1)NC(=O)[C@@H](N)CN)C(C)C)C(=O)N[C@@H](CC(=O)O)C(=O)N[C@@H](CCCCN)C(=O)N[C@@H](CCCCN)C(=O)N[C@@H](Cc1ccc(O)cc1)C(=O)N[C@@H](CCCNC(=N)N)C(=O)N[C@@H](CO)C(=O)O) [compound 3] | 67 | 128 | 
6 (For-CYYDNSSSVLCKRYRS-OH; disulfide 1-11; SMILES CC(C)C[C@@H]1NC(=O)[C@H](C(C)C)NC(=O)[C@H](CO)NC(=O)[C@H](CO)NC(=O)[C@H](CO)NC(=O)[C@H](CC(N)=O)NC(=O)[C@H](CC(=O)O)NC(=O)[C@H](Cc2ccc(O)cc2)NC(=O)[C@H](Cc2ccc(O)cc2)NC(=O)[C@@H](NC=O)CSSC[C@@H](C(=O)N[C@@H](CCCCN)C(=O)N[C@@H](CCCNC(=N)N)C(=O)N[C@@H](Cc2ccc(O)cc2)C(=O)N[C@@H](CCCNC(=N)N)C(=O)N[C@@H](CO)C(=O)O)NC1=O) [compound 6] | 88 | 109 | 
10 (H-CYFNDSSQVLCKRYRS-OH; disulfide 1-11; SMILES CC(C)C[C@@H]1NC(=O)[C@H](C(C)C)NC(=O)[C@H](CCC(N)=O)NC(=O)[C@H](CO)NC(=O)[C@H](CO)NC(=O)[C@H](CC(=O)O)NC(=O)[C@H](CC(N)=O)NC(=O)[C@H](Cc2ccccc2)NC(=O)[C@H](Cc2ccc(O)cc2)NC(=O)[C@@H](N)CSSC[C@@H](C(=O)N[C@@H](CCCCN)C(=O)N[C@@H](CCCNC(=N)N)C(=O)N[C@@H](Cc2ccc(O)cc2)C(=O)N[C@@H](CCCNC(=N)N)C(=O)N[C@@H](CO)C(=O)O)NC1=O) [compound 10] | 20 | 17 | 
2 (H-DYFDDSSNVL[Dap]KKYRS-OH; SMILES CC(C)C[C@H](NC(=O)[C@@H](NC(=O)[C@H](CC(N)=O)NC(=O)[C@H](CO)NC(=O)[C@H](CO)NC(=O)[C@H](CC(=O)O)NC(=O)[C@H](CC(=O)O)NC(=O)[C@H](Cc1ccccc1)NC(=O)[C@H](Cc1ccc(O)cc1)NC(=O)[C@@H](N)CC(=O)O)C(C)C)C(=O)N[C@@H](CN)C(=O)N[C@@H](CCCCN)C(=O)N[C@@H](CCCCN)C(=O)N[C@@H](Cc1ccc(O)cc1)C(=O)N[C@@H](CCCNC(=N)N)C(=O)N[C@@H](CO)C(=O)O) [compound 2] | 167 | 96 | 
4 (H-CYYDNSSSVLCKRYRS-OH; disulfide 1-11; not fully specified (residue 14)) [compound 4] | 99 | 130 | 
1 (H-CYFDDSSNVLCKKYRS-OH; disulfide 1-11; SMILES CC(C)C[C@@H]1NC(=O)[C@H](C(C)C)NC(=O)[C@H](CC(N)=O)NC(=O)[C@H](CO)NC(=O)[C@H](CO)NC(=O)[C@H](CC(=O)O)NC(=O)[C@H](CC(=O)O)NC(=O)[C@H](Cc2ccccc2)NC(=O)[C@H](Cc2ccc(O)cc2)NC(=O)[C@@H](N)CSSC[C@@H](C(=O)N[C@@H](CCCCN)C(=O)N[C@@H](CCCCN)C(=O)N[C@@H](Cc2ccc(O)cc2)C(=O)N[C@@H](CCCNC(=N)N)C(=O)N[C@@H](CO)C(=O)O)NC1=O) [compound 1] | 125 | 98 | 
7 (Ac-CYYDNSSSVLCKRYRS-OH; disulfide 1-11; SMILES CC(=O)N[C@H]1CSSC[C@@H](C(=O)N[C@@H](CCCCN)C(=O)N[C@@H](CCCNC(=N)N)C(=O)N[C@@H](Cc2ccc(O)cc2)C(=O)N[C@@H](CCCNC(=N)N)C(=O)N[C@@H](CO)C(=O)O)NC(=O)[C@H](CC(C)C)NC(=O)[C@H](C(C)C)NC(=O)[C@H](CO)NC(=O)[C@H](CO)NC(=O)[C@H](CO)NC(=O)[C@H](CC(N)=O)NC(=O)[C@H](CC(=O)O)NC(=O)[C@H](Cc2ccc(O)cc2)NC(=O)[C@H](Cc2ccc(O)cc2)NC1=O) [compound 7] | 65 | 103 | 
(H)-CYFNDSSQVLCKRYRS-(OH) (H-CYFNDSSQVLCKRYRS-OH; disulfide 1-11; SMILES CC(C)C[C@@H]1NC(=O)[C@H](C(C)C)NC(=O)[C@H](CCC(N)=O)NC(=O)[C@H](CO)NC(=O)[C@H](CO)NC(=O)[C@H](CC(=O)O)NC(=O)[C@H](CC(N)=O)NC(=O)[C@H](Cc2ccccc2)NC(=O)[C@H](Cc2ccc(O)cc2)NC(=O)[C@@H](N)CSSC[C@@H](C(=O)N[C@@H](CCCCN)C(=O)N[C@@H](CCCNC(=N)N)C(=O)N[C@@H](Cc2ccc(O)cc2)C(=O)N[C@@H](CCCNC(=N)N)C(=O)N[C@@H](CO)C(=O)O)NC1=O) [SEQ ID NO: 10] |  |  | very weak anti-fibrotic effect
